Like-named read-outs stand apart in the source and are kept apart here.
Key:
Format in all cases: biochemical
Recombinant Human MMP-13 = biological target: T1, Recombinant Human MMP-13 (Homo sapiens, UniProt P45452); test: MMP-13 inhibitory activity (MMP-13 specific fluorescent substrate with quencher)
T1 construct: purchased R&D systems 511-MM
Summary of the method: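 IC50 (μM) derived from % inhibition, normalised to wells without enzyme and without inhibitor, fluorescence read at 325/405 nm. Enzyme and compound preceded addition of the quenched 7-MCA…DPA substrate; Tris-HCl buffer, 25 °C for 1 h, acetic-acid stop.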

aggrecanase-1 = biological target: T2, aggrecanase-1 (Homo sapiens, UniProt O75173); test: Aggrecanase-1 inhibitory action (Particle Assay, GAG release from aggrecan-containing polyacrylamide particles)
T2 sequence (O75173 213-837): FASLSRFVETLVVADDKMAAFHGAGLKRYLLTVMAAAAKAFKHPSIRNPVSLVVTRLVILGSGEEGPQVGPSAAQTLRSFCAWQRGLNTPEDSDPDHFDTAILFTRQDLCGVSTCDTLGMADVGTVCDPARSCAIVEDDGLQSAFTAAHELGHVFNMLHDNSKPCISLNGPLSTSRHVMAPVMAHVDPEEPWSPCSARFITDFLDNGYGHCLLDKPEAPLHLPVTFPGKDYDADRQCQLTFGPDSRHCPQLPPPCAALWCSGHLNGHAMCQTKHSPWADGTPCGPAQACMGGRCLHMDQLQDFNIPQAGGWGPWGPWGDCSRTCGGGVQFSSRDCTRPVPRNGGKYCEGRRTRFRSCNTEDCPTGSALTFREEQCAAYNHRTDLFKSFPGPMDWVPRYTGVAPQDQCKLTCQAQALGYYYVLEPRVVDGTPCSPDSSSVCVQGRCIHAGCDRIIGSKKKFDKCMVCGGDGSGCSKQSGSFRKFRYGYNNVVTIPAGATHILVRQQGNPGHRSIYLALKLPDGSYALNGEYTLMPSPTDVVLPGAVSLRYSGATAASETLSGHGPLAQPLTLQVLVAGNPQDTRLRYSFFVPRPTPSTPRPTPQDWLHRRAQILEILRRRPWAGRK
Summary of the method: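 Readout was dimethylmethylene blue absorbance (595 nm) of glycosaminoglycan liberated into supernatant, calibrated with whale chondroitin sulfate. Substrate was aggrecan in polyacrylamide particles, digested 15 h at 37° C in Tris-HCl; TC50 (μM) derived from inhibition relative to no-enzyme and no-inhibitor controls.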

MMP-1 = biological target: T3, MMP-1 (Homo sapiens, UniProt P03956); test: MMP-1 inhibitory action (Type I collagen Activity Measurement kit, FITC-labeled collagen type I)
T3 sequence (P03956 100-469): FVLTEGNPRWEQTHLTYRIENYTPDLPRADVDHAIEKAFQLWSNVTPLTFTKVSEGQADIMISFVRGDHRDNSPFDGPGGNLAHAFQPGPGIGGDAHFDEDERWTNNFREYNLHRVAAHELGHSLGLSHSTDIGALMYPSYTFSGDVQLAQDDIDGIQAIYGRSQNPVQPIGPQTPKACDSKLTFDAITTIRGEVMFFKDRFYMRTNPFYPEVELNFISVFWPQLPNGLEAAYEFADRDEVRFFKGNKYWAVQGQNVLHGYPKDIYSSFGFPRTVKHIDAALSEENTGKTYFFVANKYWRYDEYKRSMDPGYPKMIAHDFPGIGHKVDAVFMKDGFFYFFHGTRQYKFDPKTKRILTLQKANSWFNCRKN

[1] = Recombinant Human MMP-13, fluorescent substrate, 25° C. for 1 h, read-out: IC50 MMP13 (Experimental Example 3)
[2] = aggrecanase-1 inhibitory action, read-out: IC50 AG1 (Experimental Example 1)
[3] = MMP-1 inhibitory action, FITC-labeled collagen type I, 37° C. for 3 hr, read-out: IC50 MMP1 (Experimental Example 2)
[4] = Experimental Example 3, read-out: IC50 MMP13
[5] = Experimental Example 1, read-out: IC50 AG1
[6] = Experimental Example 2, read-out: IC50 MMP1

Structure (SMILES)	IC50 (Recombinant Human MMP-13; [1])	IC50 (aggrecanase-1; [2])	IC50 (MMP-1; [3])	IC50 (Recombinant Human MMP-13; [4])	IC50 (aggrecanase-1; [5])	IC50 (MMP-1; [6])
O=C(O)C1(NS(=O)(=O)N2CC(Oc3ccc(Cl)cc3)C2)CC1c1ccccc1 (stereo not drawn) [Example 2-15]	≥ 1000 nM	≥ 10000 nM	≥ 10000 nM	–	–	–
O=C(O)C1(NS(=O)(=O)c2cn3cc(-c4ccc(Cl)cc4)nc3s2)CC1c1ccccc1 (stereo not drawn) [Example 2-490]	–	–	–	< 100 nM	≥ 1000 nM	≥ 10000 nM
CC(=O)c1ccc(S(=O)(=O)NC2(C(=O)O)CC2c2ccccc2)s1 (stereo not drawn) [Example 2-66]	≥ 1000 nM	≥ 1000 nM	≥ 10000 nM	–	–	–
O=C(O)[C@]1(NS(=O)(=O)c2ccc(-c3cc(C(F)F)on3)s2)C[C@@H]1c1ccccc1 [Example 2-99]	< 1000 nM	< 100 nM	< 1000 nM	–	–	–
CC1[C@H](c2ccccc2)[C@]1(NS(=O)(=O)c1ccc(-c2ccc3c(c2)OCO3)s1)C(=O)O (stereo partly drawn) [Example 2-470]	–	–	–	< 100 nM	< 100 nM	< 1000 nM
CC(C)C(=O)NCC1(c2ccccc2)CC1(NS(=O)(=O)c1ccc(-c2ccc(Cl)cc2)s1)C(=O)O (stereo not drawn) [Example 2-397]	–	–	–	< 1000 nM	< 1000 nM	≥ 10000 nM
O=C(O)C1(NS(=O)(=O)c2ccc(-c3ccc(Cl)cc3)s2)CC1c1cccc(NCc2cccnc2)c1 (stereo not drawn) [Example 1-129]	< 100 nM	< 100 nM	≥ 1000 nM	–	–	–
O=C(O)[C@]1(NS(=O)(=O)c2ccc(-c3cc(CF)on3)cc2)C[C@@H]1c1ccccc1 [Example 2-137]	< 100 nM	≥ 1000 nM	< 1000 nM	–	–	–
CC1(c2ccccc2F)CC1(NS(=O)(=O)c1ccc(-c2cc(C(F)(F)F)on2)s1)C(=O)O (stereo not drawn) [Example 2-615]	–	–	–	< 100 nM	< 100 nM	< 100 nM
C#Cc1cnn(-c2ccc(S(=O)(=O)N[C@@]3(C(=O)O)[C@H](C)[C@@H]3c3ccccc3)s2)c1 [Example 2-4, (1S,2R,3R)-1-[5-(4-ethynyl-pyrazole-1-yl)-thiophene-2-sulfonylamino]-2-methyl-3-phenyl-cyclopropanecarboxylic acid]	< 100 nM	< 100 nM	< 1000 nM	–	–	–
C[C@]1(c2ccc(F)cc2)C[C@@]1(NS(=O)(=O)c1ccc(-c2cc(C(F)(F)F)on2)s1)C(=O)O [Example 2-621]	–	–	–	< 100 nM	< 100 nM	< 1000 nM
NCCCC1(c2ccccc2)CC1(NS(=O)(=O)c1ccc(-c2ccc(Cl)cc2)s1)C(=O)O (stereo not drawn) [Example 2-285]	–	–	–	≥ 1000 nM	< 1000 nM	≥ 1000 nM
O=C(NCC1(c2ccccc2)CC1(NS(=O)(=O)c1ccc(-c2ccc(Cl)cc2)s1)C(=O)O)c1cccnc1 (stereo not drawn) [Example 2-394]	–	–	–	< 100 nM	< 1000 nM	≥ 1000 nM
O=C(O)C1(NS(=O)(=O)c2ccc(-c3ccc(Cl)cc3)s2)CC1(COCc1ccccc1)c1ccccc1 (stereo not drawn) [Example 2-356]	–	–	–	< 1000 nM	< 1000 nM	< 1000 nM
CC1[C@H](c2ccccc2)[C@]1(NS(=O)(=O)N1CCCN(c2cccc(Cl)c2)CC1)C(=O)O (stereo partly drawn) [Example 2-471]	–	–	–	≥ 1000 nM	≥ 1000 nM	≥ 10000 nM
O=C(O)[C@]1(NS(=O)(=O)c2ccc(-c3noc(C(F)(F)C(F)(F)F)n3)s2)C[C@@H]1c1ccccc1 [Example 2-45]	≥ 1000 nM	≥ 1000 nM	≥ 10000 nM	–	–	–
CNC(=O)Cc1ccc([C@@H]2C[C@]2(NS(=O)(=O)c2ccc(-c3cc(C(F)(F)F)on3)s2)C(=O)O)cc1 [Example 2-293]	–	–	–	< 100 nM	< 100 nM	< 1000 nM
O=C(O)C1(NS(=O)(=O)c2ccc(-c3ccc(Cl)cc3)cc2)CC1c1cccc(Oc2cccnc2)c1 (stereo not drawn) [Example 1-68]	< 100 nM	< 1000 nM	≥ 1000 nM	–	–	–
O=C(O)C1(NS(=O)(=O)c2ccc(-c3ccc(Cl)cc3)s2)CC1(CNCc1nccs1)c1ccccc1 (stereo not drawn) [Example 2-393]	–	–	–	< 100 nM	< 1000 nM	≥ 1000 nM

From US20080261994A1, “CYCLOPROPANE COMPOUNDS AND PHARMACEUTICAL USE THEREOF” (Japan Tobacco Inc., priority 2003, published 2008)
